Results published in US20140148446A1, “COMPOUNDS THAT ENABLE ALTERNATIVE MITOCHONDRIAL ELECTRON TRANSFER” (University of North Texas Health Science Center, priority 2010, published 2014).

What was measured:
[1] = system: HT-22 cells; test: Protection against cell death (cell viability) induced by glutamate in HT-22 cells; type: cell-based; details: for Potency and efficacy of the protective action on cell viability (FIG. 10): glutamate toxicity, compared with methylene blue
Method: HT-22 cells (gift from Dr. David Schubert, Salk Institute, San Diego, Calif.) were plated at 4,000 cells per well in 96 well plates and cultured over night. […] At the end of the 24 hours, the medium was removed and the plates were rinsed with PBS and incubated with 10 μM calcein-AM (Invitrogen, Carlsbad, Calif.) in PBS for 20 minutes. […] Cell culture wells treated with bleach before rinsing were used as blank.

[2] = system: HT-22 cells; test: Protection against ROS production induced by glutamate in HT-22 cells; type: cell-based; details: for Potency and efficacy of the protective action on reactive oxygen species production (FIG. 11): compared with methylene blue
[3] = system: HT-22 cells; test: Protection against mitochondrial membrane potential collapse induced by glutamate in HT-22 cells; type: cell-based; details: for Potency and efficacy of the protective action on mitochondrial membrane potential collapse (FIG. 12): compared with methylene blue
[4] = system: mitochondrial complex I-III; type: biochemical, rat; details: for Inhibition of complex I-III activity: inhibitor alone
Method: (§1) Fresh rat heart was removed and placed in ice-cold mitochondrial isolation buffer containing 210 mM mannitol, 70 mM sucrose, 5 mM HEPES, and 1 mM EDTA, pH 7. The heart was homogenized immediately, and the mitochondrial fraction was isolated by differential centrifugation as described previously (Trounce et al., 1996). Mitochondria were stored at −80° C. until subsequent analysis.
(§2) All mitochondrial activity assays were performed according to previous publications with minimal modifications for complex I (Lenaz et al., 2004), complex I-III, complex II, complex III, and II-III (Trounce et al., 1996). […] Complex I activity was monitored by adding NADH to the mix with or without rotenone/antimycin A. The final data were normalized to blank values at time zero. The reaction was monitored in a kinetic spectrophotometer at 340 nm. Complex I activity was measured in arbitrary units and normalized to control levels for statistical analysis. Isolated mitochondria equivalent to 40-200 μg mitochondrial protein was used for each assay, except for assays with inhibitors, when larger amount of mitochondria (3 to 5 folds) were used to ensure that inhibition was distinguishable. Final data were normalized to control levels. For complex I-III activity, the reaction was initiated with the addition of NADH, cyt c was used as final substrate and its reduction was monitored at 550 nm. For assay of complex II-III activity, succinate was added instead of NADH, and the electron transfer to cyt c was performed according to previous publications (Atamna et al., 2008). To test whether the electrons from the reduced form of MB (MBH2) can be transferred to cyt c in mitochondrial lysate, we added 10 μM 2,7-dichlorofluorescin (DCFH, Invitrogen, Carlsbad, Calif.) to the reaction system. Free radicals convert non-fluorescent DCFH to highly fluorescent DCF (Ex, 488 nm, and Em, 530 nm). In the presence of cyt c, which accepts electrons from MBH2, conversion of DCFH to DCF is decreased.

[5] = system: mitochondrial complex I; test: Mitochondrial complex I activity assay (NADH dehydrogenase); type: biochemical, rat
Method: as §1, §2

[6] = system: mitochondrial complex II-III; test: Mitochondrial complex II-III activity in extracted mitochondria; type: biochemical, rat; details: inhibitor alone
Method: as §1
All mitochondrial activity assays were performed according to previous publications with minimal modifications for complex I (Lenaz et al., 2004), complex I-III, complex II, complex III, and II-III (Trounce et al., 1996). […] Complex I activity was monitored by adding NADH to the mix with or without rotenone/antimycin A. The final data were normalized to blank values at time zero. The reaction was monitored in a kinetic spectrophotometer at 340 nm. Complex I activity was measured in arbitrary units and normalized to control levels for statistical analysis. Isolated mitochondria equivalent to 40-200 μg mitochondrial protein was used for each assay, except for assays with inhibitors, when larger amount of mitochondria (3 to 5 folds) were used to ensure that inhibition was distinguishable. Final data were normalized to control levels. For complex I-III activity, the reaction was initiated with the addition of NADH, cyt c was used as final substrate and its reduction was monitored at 550 nm. […]

[7] = Mus musculus, glutamate, HT-22 cells, read-out: Protection against cell death (EC50)
[8] = glutamate, HT-22 cells, read-out: Protection against cell death (EC50)

EC50 ([2]; Mus musculus) | EC50 ([3]; Mus musculus) | Molecule | EC50 [1, 7] | Potency and efficacy of the protective action on cell viability (FIG. 10) ([1]; HT-22 cells) | Potency and efficacy of the protective action on reactive oxygen species production (FIG. 11) [2] | Potency and efficacy of the protective action on mitochondrial membrane potential collapse (FIG. 12) [3] | further results
0.0841 µM | 0.0451 µM | Clc1ccc2c(c1)Nc1ccccc1S2 [2-chlorophenothiazine] | 0.00457 µM | – | – | – | –
– | – | CC(=O)N1c2ccc(N(C)C)cc2Sc2cc(N(C)C)ccc21 [Acetyl-MB, acetyl-methylene blue] | – | – | – | – | Ability to enhance electron transfer between complex I and III ([4]; redox center disabled by N-acetylation): completely lost its ability to enhance electron transfer
2.15 µM | 3.27 µM | CN(C)CCCN1c2ccccc2Sc2ccc(Cl)cc21 [chlorpromazine] | 2.19 µM | significantly decreases the potency and efficacy | significantly decrease the potency and efficacy | significantly decrease the potency and efficacy | –
84.6 µM | 29.1 µM | CN(C)CCCN1c2ccccc2CCc2ccccc21 [impramine] | 51.9 µM | significantly decreases the potency and efficacy | significantly decrease the potency and efficacy | significantly decrease the potency and efficacy | –
– | – | Cc1cc2nc3ccc(N(C)C)cc3nc2cc1N.Cl [neutral red] | – | significantly decrease the potency and efficacy | significantly decrease the potency and efficacy | significantly decrease the potency and efficacy | EC50 [1, 8]: 5.84 µM; EC50 [2]: 15.8 µM; EC50 [3]: 8.96 µM
9.69 µM | 0.214 µM | CC(CN1c2ccccc2Sc2ccccc21)N(C)C (stereo not drawn) [promethazine] | 2.06 µM | significantly decreases the potency and efficacy | significantly decrease the potency and efficacy | significantly decrease the potency and efficacy | –
– | – | C=C(C)[C@H]1Cc2c(ccc3c2O[C@@H]2COc4cc(OC)c(OC)cc4[C@@H]2C3=O)O1 [rotenone] | – | – | – | – | Inhibition of complex I-III activity [4]: 90%; Inhibition of complex I activity ([5]; CoQ1 as substrate): above 95%; Inhibition of complex I activity ([5]; MB as substrate, maximum rotenone concentrations): 26.7%
– | – | Cc1cc2nc3ccc(N(C)C)cc3[s+]c2cc1N [toluidine blue] | – | – | – | – | EC50 [1, 8]: 0.00175 µM; EC50 [2]: 0.000106 µM; EC50 [3]: 0.00154 µM
– | – | antimycin A | – | – | – | – | Inhibition of complex I-III activity [4]: 70%; Inhibition of complex II-III activity [6]: 80%

Molecule | EC50 ([2]; Mus musculus) | EC50 ([3]; Mus musculus) | EC50 [1, 7] | Potency and efficacy of the protective action on cell viability (FIG. 10) ([1]; HT-22 cells) | Potency and efficacy of the protective action on reactive oxygen species production (FIG. 11) [2] | Potency and efficacy of the protective action on mitochondrial membrane potential collapse (FIG. 12) [3] | further results
C1=Cc2ccccc2Nc2ccccc21 [Iminostilbene] | 0.484 µM | 0.0617 µM | 0.189 µM | – | – | – | –
c1ccc2c(c1)Nc1ccccc1S2 [phenothiazine] | 0.0572 µM | 0.0212 µM | – | – | – | – | EC50 ([1]; Mus musculus, HT-22, read-out: Protection against cell death (EC50)): 0.019 µM
